US7858635B2 (priority 2005, dated 2010)

Columns and labels:
M1 muscarinic receptor = target: T1, M1 muscarinic receptor (Homo sapiens, UniProt P11229); assay: Functional mobilization of intracellular calcium (FLIPR, Fluo-3), M1-CHO cells; assay type: cell-based; conditions: compound nos. 1-454; for Emax: 100% efficacy is the maximum response obtained with the Carbachol control, read-out: M1 Efficacy; for M1 Activity: M1-CHO cells, calcium mobilization
T1 construct: expressed in transfected cells; host or cells: CHO cells (M1-CHO, under zeocin and G418 selection)
T1 sequence (P11229 1-460): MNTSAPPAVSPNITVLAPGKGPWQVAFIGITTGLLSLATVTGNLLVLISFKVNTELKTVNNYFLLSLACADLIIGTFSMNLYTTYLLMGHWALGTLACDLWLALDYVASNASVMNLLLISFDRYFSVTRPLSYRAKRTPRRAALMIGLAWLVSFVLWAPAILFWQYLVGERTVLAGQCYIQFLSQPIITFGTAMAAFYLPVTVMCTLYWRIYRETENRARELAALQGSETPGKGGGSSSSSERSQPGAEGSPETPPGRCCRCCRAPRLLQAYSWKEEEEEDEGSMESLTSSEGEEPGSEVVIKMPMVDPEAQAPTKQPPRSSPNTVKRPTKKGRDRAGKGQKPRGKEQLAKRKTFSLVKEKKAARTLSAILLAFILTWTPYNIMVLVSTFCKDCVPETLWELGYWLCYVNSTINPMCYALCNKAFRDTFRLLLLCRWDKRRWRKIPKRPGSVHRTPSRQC
Outline: (§1)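 CHO lines stably carrying the muscarinic subtype, dye-loaded with Fluo-3 at 37° C for 60-90 min, receive test compound in 0.5% DMSO. Agonist effects are read directly; antagonist effects against carbachol at EC80 after 15 min pre-incubation.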

M4 muscarinic receptor = target: T2, M4 muscarinic receptor (Homo sapiens, UniProt P08173); assay: Functional mobilization of intracellular calcium (FLIPR, Fluo-3), M4-CHO cells; assay type: cell-based; conditions: compound nos. 1-454; for Emax: 100% efficacy is the maximum response obtained with the Carbachol control, read-out: M4 Efficacy; for M4 Activity: M4-CHO cells, calcium mobilization
T2 construct: expressed in transfected cells; host or cells: CHO cells (M4-CHO, under puromycin, zeocin and blasticidin selection)
T2 sequence (P08173 1-479): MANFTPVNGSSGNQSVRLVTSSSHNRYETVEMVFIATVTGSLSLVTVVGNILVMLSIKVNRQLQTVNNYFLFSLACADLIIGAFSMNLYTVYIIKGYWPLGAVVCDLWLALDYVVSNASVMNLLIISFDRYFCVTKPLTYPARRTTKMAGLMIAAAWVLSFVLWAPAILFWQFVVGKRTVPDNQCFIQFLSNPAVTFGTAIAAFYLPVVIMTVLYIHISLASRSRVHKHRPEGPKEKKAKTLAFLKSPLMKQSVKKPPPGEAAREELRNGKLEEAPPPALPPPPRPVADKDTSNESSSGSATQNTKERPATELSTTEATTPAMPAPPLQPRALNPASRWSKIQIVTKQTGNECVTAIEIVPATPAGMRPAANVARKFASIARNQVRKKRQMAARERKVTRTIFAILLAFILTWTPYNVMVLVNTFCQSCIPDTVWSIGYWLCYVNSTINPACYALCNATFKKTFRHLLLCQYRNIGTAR
Outline: as §1

| Structure (SMILES) | Emax (M1 muscarinic receptor) [%] | M1 Activity (M1 muscarinic receptor) | Emax (M4 muscarinic receptor) [%] | M4 Activity (M4 muscarinic receptor) |
| --- | --- | --- | --- | --- |
| CCOC(=O)N1CCC(N2CCC3(CC2)CN(C(=O)c2ccncc2)c2ccc(F)cc23)CC1 [compound 260] | 65 to 85 | +++ (activity was measured to be less than or equal to 0.7 μM) | < 55 | + (activity was measured to be greater than or equal to 4.0 μM) |
| CC(=O)N[C@H]1CC2(CCN(C3CCCCCCC3)CC2)c2ccccc21 [compound 261] | < 65 | ++ (activity was measured to be between 0.7 μM and 3.0 μM) | < 55 | + (activity was measured to be greater than or equal to 4.0 μM) |
| CCOC(=O)N1CCC(N2CCC3(CC2)CN(C(=O)c2ccccc2OC)c2ccc(F)cc23)CC1 [compound 262] | < 65 | + (activity was measured to be greater than or equal to 3.0 μM) | < 55 | + (activity was measured to be greater than or equal to 4.0 μM) |
| C1=C[C@H]2C[C@H]1C[C@@H]2CN1CCC2(CCc3ccccc32)CC1 [compound 263] | < 65 | +++ (activity was measured to be less than or equal to 0.7 μM) | < 55 | +++ (activity was measured to be less than or equal to 0.1 μM) |
| Cc1ccc2c(c1)C1(CCN([C@@H]3C[C@@H]4CC[C@@H]3C4)CC1)CN2 [compound 264] | < 65 | + (activity was measured to be greater than or equal to 3.0 μM) | < 55 | + (activity was measured to be greater than or equal to 4.0 μM) |
| COCCOC(=O)N1CCC(N2CCC3(CC2)CN(C(=O)N(C)C)c2ccc(F)cc23)CC1 [compound 265] | < 65 | ++ (activity was measured to be between 0.7 μM and 3.0 μM) | < 55 | ++ (activity was measured to be between 0.1 μM and 4.0 μM) |
| CCCOC(=O)N1CCCC(N2CCC3(CC2)CN(C(C)=O)c2ccc(F)cc23)CC1 (centres unmarked) [compound 266] | < 65 | + (activity was measured to be greater than or equal to 3.0 μM) | < 55 | + (activity was measured to be greater than or equal to 4.0 μM) |
| CCOC(=O)N1CCC(N2CCC3(CC2)CN(C(=O)c2ccccc2F)c2ccc(F)cc23)CC1 [compound 267] | < 65 | + (activity was measured to be greater than or equal to 3.0 μM) | < 55 | + (activity was measured to be greater than or equal to 4.0 μM) |
| CC(=O)N1CC2(CCN(C3CCOCC3)CC2)c2cc(F)ccc21 [compound 268] | < 65 | + (activity was measured to be greater than or equal to 3.0 μM) | < 55 | + (activity was measured to be greater than or equal to 4.0 μM) |
| CC(=O)N1CC2(CCN(C3CCN(C(=O)OC(C)C)CC3)CC2)c2cc(F)ccc21 [compound 269] | 65 to 85 | +++ (activity was measured to be less than or equal to 0.7 μM) | > 70 | +++ (activity was measured to be less than or equal to 0.1 μM) |
| CCCCC(=O)N1CC2(CCN(C3CCN(C(=O)OCC)CC3)CC2)c2cc(F)ccc21 [compound 270] | 65 to 85 | +++ (activity was measured to be less than or equal to 0.7 μM) | > 70 | +++ (activity was measured to be less than or equal to 0.1 μM) |
| O=C(OC1CCCC1)N1C2CCC1CC(N1CCC3(CC1)C(=O)Nc1ccccc13)C2 (centres unmarked) [compound 271] | 65 to 85 | +++ (activity was measured to be less than or equal to 0.7 μM) | < 55 | +++ (activity was measured to be less than or equal to 0.1 μM) |
| c1ccc2c(c1)NCC21CCN(C2CC3CCC2C3)CC1 (centres unmarked) [compound 272] | 65 to 85 | +++ (activity was measured to be less than or equal to 0.7 μM) | > 70 | +++ (activity was measured to be less than or equal to 0.1 μM) |
| CC(=O)N[C@H]1CC2(CCN(C3CCC(c4ccccc4)CC3)CC2)c2ccccc21 (some centres unmarked) [compound 273] | > 85 | +++ (activity was measured to be less than or equal to 0.7 μM) | > 70 | ++ (activity was measured to be between 0.1 μM and 4.0 μM) |
| CCOC(=O)N[C@@H]1CC2(CCN(C[C@H]3C[C@H]4CC[C@H]3C4)CC2)c2ccccc21 [compound 275] | 65 to 85 | +++ (activity was measured to be less than or equal to 0.7 μM) | > 70 | ++ (activity was measured to be between 0.1 μM and 4.0 μM) |
| Clc1ccc2c(c1)C1(CCO2)CCN(C2CCCCC2)CC1 [compound 276] | 65 to 85 | +++ (activity was measured to be less than or equal to 0.7 μM) | 55 to 70 | + (activity was measured to be greater than or equal to 4.0 μM) |
| CCOC(=O)N1C2CCC1CC(N1CCC3(CC1)c1ccccc1C(=O)C3(C)C)C2 (centres unmarked) [compound 278] | 65 to 85 | ++ (activity was measured to be between 0.7 μM and 3.0 μM) | 55 to 70 | ++ (activity was measured to be between 0.1 μM and 4.0 μM) |
| CC(=O)N1CC2(CCN(C3CCN(C(=O)O[C@@H]4CCOC4)CC3)CC2)c2cc(C)ccc21 [compound 279] | < 65 | ++ (activity was measured to be between 0.7 μM and 3.0 μM) | < 55 | ++ (activity was measured to be between 0.1 μM and 4.0 μM) |
| CC(=O)N[C@H]1CC2(CCN(C3CCC(C)CC3)CC2)c2ccccc21 (some centres unmarked) [compound 280] | 65 to 85 | + (activity was measured to be greater than or equal to 3.0 μM) | 55 to 70 | + (activity was measured to be greater than or equal to 4.0 μM) |
| CCOC(=O)N1CCC(N2CCC3(CC2)CN(C(=O)C2CCCCC2)c2ccc(F)cc23)CC1 [compound 281] | < 65 | ++ (activity was measured to be between 0.7 μM and 3.0 μM) | 55 to 70 | ++ (activity was measured to be between 0.1 μM and 4.0 μM) |
| CCOC(=O)N1CCC(N2CCC3(CC2)CN(C(=O)C(C)(C)C)c2ccc(F)cc23)CC1 [compound 282] | < 65 | +++ (activity was measured to be less than or equal to 0.7 μM) | 55 to 70 | ++ (activity was measured to be between 0.1 μM and 4.0 μM) |
| CCCOC(=O)N1C2CCC1CC(N1CCC3(CC1)COc1ccc(F)cc13)C2 (centres unmarked) [compound 283] | 65 to 85 | ++ (activity was measured to be between 0.7 μM and 3.0 μM) | 55 to 70 | + (activity was measured to be greater than or equal to 4.0 μM) |
| COCCOC(=O)N1CCC(N2CCC3(CC2)CN(C(C)=O)c2ccc(F)cc23)CC1 [compound 284] | < 65 | ++ (activity was measured to be between 0.7 μM and 3.0 μM) | < 55 | ++ (activity was measured to be between 0.1 μM and 4.0 μM) |
| CC(C)OC(=O)N1C2CCC1CC(N1CCC3(CCc4ccccc43)CC1)C2 (centres unmarked) [compound 285] | < 65 | ++ (activity was measured to be between 0.7 μM and 3.0 μM) | < 55 | + (activity was measured to be greater than or equal to 4.0 μM) |
| CCCCOC(=O)N1C2CCC1CC(N1CCC3(CC1)COc1ccc(F)cc13)C2 (centres unmarked) [compound 286] | < 65 | ++ (activity was measured to be between 0.7 μM and 3.0 μM) | < 55 | + (activity was measured to be greater than or equal to 4.0 μM) |
| COC(=O)N1CC2(CCN(C3CC4CCC(C3)N4C(=O)OCC(C)C)CC2)c2cc(F)ccc21 (centres unmarked) [compound 287] | < 65 | ++ (activity was measured to be between 0.7 μM and 3.0 μM) | < 55 | + (activity was measured to be greater than or equal to 4.0 μM) |
